In paper PMC8472154 (Molecules, 2021):
Where two headings read alike, the source gives them in different places. Marks after values point to notes of the source that are not given here.

Tests used:
[1] = Nitric oxide free radical scavenging activity (sodium nitroprusside); set-up: key to Half Maximal Inhibitory Concentration IC50 NO.: ---: no activity; details: for nitric oxide radical scavenging activity: at the concentrations permitted to evaluate, Figure 3C; for Half Maximal Inhibitory Concentration IC50 NO.: mean ± SD, triplicate
Description: The essential oil NO scavenging activity was estimated using the protocol described by El Guendouz et al. The inhibition percentage was calculated using the formula: Inhibition = [(A0 − (A1 − A2)/A0 × 100]. The A0 is the absorbance of sodium nitroprusside without sample, A1 and A2 were the absorbance of the sample with and without sodium nitroprusside.

[2] = target: 5-lipoxygenase (Glycine max, UniProt P08170); test: Lipoxygenase inhibition assay (linoleic acid substrate); assay type: biochemical
Chain of 5-lipoxygenase (P08170 whole entry): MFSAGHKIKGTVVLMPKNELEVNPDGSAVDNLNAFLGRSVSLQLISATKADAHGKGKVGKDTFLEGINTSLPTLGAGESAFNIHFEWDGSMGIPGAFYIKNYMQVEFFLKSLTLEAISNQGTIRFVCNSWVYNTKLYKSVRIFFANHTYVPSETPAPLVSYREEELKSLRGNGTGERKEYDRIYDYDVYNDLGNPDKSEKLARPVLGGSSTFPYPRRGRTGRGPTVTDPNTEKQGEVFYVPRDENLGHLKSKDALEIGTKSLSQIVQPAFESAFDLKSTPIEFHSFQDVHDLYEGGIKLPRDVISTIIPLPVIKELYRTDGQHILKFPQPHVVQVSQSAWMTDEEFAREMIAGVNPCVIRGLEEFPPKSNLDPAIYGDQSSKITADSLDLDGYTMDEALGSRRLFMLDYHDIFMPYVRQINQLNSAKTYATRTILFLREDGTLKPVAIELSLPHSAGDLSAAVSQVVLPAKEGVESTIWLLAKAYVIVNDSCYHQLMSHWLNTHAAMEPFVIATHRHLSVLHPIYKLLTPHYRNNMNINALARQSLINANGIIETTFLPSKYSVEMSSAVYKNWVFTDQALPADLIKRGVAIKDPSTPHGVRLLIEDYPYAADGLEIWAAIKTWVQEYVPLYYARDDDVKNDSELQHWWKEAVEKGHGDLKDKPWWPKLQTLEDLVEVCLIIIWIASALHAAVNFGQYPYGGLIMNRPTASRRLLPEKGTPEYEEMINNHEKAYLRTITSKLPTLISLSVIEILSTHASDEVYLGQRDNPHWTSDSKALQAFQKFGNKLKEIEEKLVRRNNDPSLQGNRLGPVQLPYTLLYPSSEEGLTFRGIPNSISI
Description: The 5-lipoxygenase assay was carried out according to the method described by El Guendouz et al. The following formula was used to determine the percentage of inhibition action: Inhibition = [(A0 − A1)/A0) × 100]; where A0 is the absorbance of the control and A1 is the absorbance of the sample.

[3] = Hydrogen peroxide scavenging activity (colorimetric); set-up: key: ---: no activity; details: mean ± SD, triplicate
Description: The scavenging hydrogen peroxide was evaluated by a colorimetric assay according to Gupta and Sharma. […] Tests were carried out in triplicate.

[4] = system: tyrosinase; test: Tyrosinase inhibition assay (L-DOPA oxidation); assay type: biochemical; set-up: inhibition: dose or concentration left out as unconfirmed; details: Figure 4C; read-out: tyrosinase inhibition percentage, major terpenes
Description: (§1) The tyrosinase inhibition was carried out by the tyrosinase-dependent L-3,4-dihydroxyphenylalanine (L-DOPA) oxidation assay as previously described. The following formula was used to determine the percentage of inhibition action: Inhibition = [(A0 − A1)/A0) × 100]; with A0 as the absorbance of the control and A1 as the absorbance of the sample.

[5] = target: T1, acetylcholinesterase (Homo sapiens, UniProt P22303); details: cited from earlier work
T1 sequence (P22303 32-614, species assumed): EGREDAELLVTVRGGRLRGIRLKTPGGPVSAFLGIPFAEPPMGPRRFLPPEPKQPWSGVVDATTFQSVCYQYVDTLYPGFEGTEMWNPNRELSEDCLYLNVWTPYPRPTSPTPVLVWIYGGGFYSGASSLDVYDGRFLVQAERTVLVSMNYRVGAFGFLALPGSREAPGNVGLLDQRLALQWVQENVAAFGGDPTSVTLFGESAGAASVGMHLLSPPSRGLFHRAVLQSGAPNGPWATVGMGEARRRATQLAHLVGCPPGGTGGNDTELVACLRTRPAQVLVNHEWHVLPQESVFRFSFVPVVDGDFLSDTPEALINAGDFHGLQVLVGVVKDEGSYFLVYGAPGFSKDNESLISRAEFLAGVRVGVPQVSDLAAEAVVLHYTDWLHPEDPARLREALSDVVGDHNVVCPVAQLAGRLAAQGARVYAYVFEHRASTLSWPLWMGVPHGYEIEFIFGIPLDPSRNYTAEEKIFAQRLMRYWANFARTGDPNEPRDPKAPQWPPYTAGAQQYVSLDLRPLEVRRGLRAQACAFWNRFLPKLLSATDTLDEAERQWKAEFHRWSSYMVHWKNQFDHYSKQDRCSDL

[6] = target: α-glucosidase (Saccharomyces cerevisiae, UniProt P53341); test: α-Glucosidase inhibition assay; assay type: biochemical; details: mean ± SD, triplicate
Chain of α-glucosidase (P53341 whole entry): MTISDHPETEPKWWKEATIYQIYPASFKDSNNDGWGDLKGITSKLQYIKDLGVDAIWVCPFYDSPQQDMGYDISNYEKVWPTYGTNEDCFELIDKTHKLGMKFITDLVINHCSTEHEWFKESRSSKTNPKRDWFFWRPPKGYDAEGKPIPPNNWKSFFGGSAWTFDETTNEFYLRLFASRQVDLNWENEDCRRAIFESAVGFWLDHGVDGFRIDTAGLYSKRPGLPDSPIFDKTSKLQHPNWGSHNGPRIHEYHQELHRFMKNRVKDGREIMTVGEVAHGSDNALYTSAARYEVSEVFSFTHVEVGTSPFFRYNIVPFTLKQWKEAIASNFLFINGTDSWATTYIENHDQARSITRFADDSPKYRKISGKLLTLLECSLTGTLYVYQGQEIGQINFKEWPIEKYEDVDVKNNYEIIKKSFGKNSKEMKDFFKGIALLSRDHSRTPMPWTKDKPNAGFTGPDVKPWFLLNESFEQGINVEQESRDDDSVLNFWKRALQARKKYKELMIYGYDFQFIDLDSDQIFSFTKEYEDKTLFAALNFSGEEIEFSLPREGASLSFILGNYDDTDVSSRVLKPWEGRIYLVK
Description: The α-glucosidase inhibitor capacity of the essential oils was determined as described by El-Guendouz et al. The crease of absorbance was performed at 405 nm. The inhibition percentage of the enzyme was calculated as follows: I% = [(A0 −A1)/A0) × 100]; where A0 is the absorbance of the control and A1 is the absorbance of the sample. The trials were triplicated.

[7] = Superoxide anion radical scavenging (nonenzymatic PMS-NADH system); set-up: key: ---: no activity; details: mean ± SD, triplicate
Description: Superoxide anion free radical inhibition ability was evaluated using a nonenzymatic PMS-NADH (phenazine methosulfate–nicotinamide adenine dinucleotide) system as previously reported. The inhibition quantification was performed as aforementioned.

[8] = system: methicillin-resistant S. aureus 15 (MRSA 15); test: Agar disc diffusion; assay type: cell-based, Staphylococcus aureus; details: 5 µL per 6 mm disc, 24 h, diameter including disc, chloramphenicol 30 μg/mL
Description: (§2) The Gram negative bacterium Escherichia coli DSM 1077, and the Gram positive Staphylococcus aureus ATCC 6538 and the methicillin-resistant S. aureus 15 (MRSA 15) were used in the present study. The bacterial strains were recovered from −80 °C in the culture medium Brain Heart Infusion (BHI, Oxoid, Basingstock, UK), when required agar (VWR, Radnor, Philadelphia, PA, USA) at 1.5% w/v.
(§3) The bacterial susceptibility to the combinations Ro:La:Ca at ratio 1:1:1, Ro:La:Ca at ratio 2/3:1/6:16, Ro:La:Ca at ratio 1/6:2/3:16, Ro:La:Ca at ratio 1/6:1/6:2/3, and the components linalool, 1,8 cineole, and camphor, were performed by the agar disc diffusion technique as previously described. Briefly, 100 µL of the bacterial suspension at an OD600nm 0.3–0.4 was inoculated in BHI agar, and sterile discs (∅ 6 mm) were distributed over the surface. A volume of 5 µL of each EO and the individual components 1,8-cineole (52.62 mg/mL), and linalool (16.13 mg/mL), were deposited in the center of each disc. The plates were incubated for 24 h. The diameter of the inhibition zone including the disc was measured. The assay was performed in triplicate (n = 6).

[9] = system: S. aureus ATCC 6538; test: Agar disc diffusion; assay type: cell-based, Staphylococcus aureus; details: 5 µL per 6 mm disc, 24 h, diameter including disc, chloramphenicol 30 μg/mL
Description: as §2, §3

[10] = system: E. coli DSM 1077; test: Agar disc diffusion; assay type: cell-based, Escherichia coli; details: 5 µL per 6 mm disc, 24 h, diameter including disc, chloramphenicol 30 μg/mL
Description: as §2, §3

[11] = system: E. coli DSM 1077 biofilm; test: Biofilm formation inhibition (crystal violet); assay type: cell-based, Escherichia coli; details: EO at 2.5, 5 and 10 μL/mL; chlorohexidine 0.2% v/v; 24 h; versus control culture; Figure 5
Description: as §2
(§4) The inhibition of biofilm formation was done using the crystal violet assay. Briefly, 150 µL of an overnight culture prepared as previously mentioned was centrifuged for 10 min at 4 °C. For the preparation of the bacterial suspension, 150 µL of BHI medium supplemented with EOs at the 2.5 µL/mL, 5 µL/mL and 10 µL/mL, chlorhexidine 0.2% (v/v), n-propanol (20%), was added to the centrifuged bacterial culture. Each well containing 180 µL of BHI supplemented with EOs at the appropriate concentration was inoculated with 20 µL of the previous bacterial suspension. The cultures with no EO and in the presence of chlorohexidine (0.2 %, v/v), were used as control. The culture was left to adhere and form a biofilm for 24 h. After this incubation time, non-adherent cells were eliminated and the wells were washed twice with PBS; then, the microplate was left to dry for 15–30 min. […] The absorbance was measured at 595 nm after 15–20 min incubation.

[12] = system: MRSA 15 biofilm; test: Biofilm formation inhibition (crystal violet); assay type: cell-based, Staphylococcus aureus; details: EO at 2.5, 5 and 10 μL/mL; chlorohexidine 0.2% v/v; 24 h; versus control culture; Figure 5
Description: as §2, §4

[13] = system: S. aureus ATCC 6538 biofilm; test: Biofilm formation inhibition (crystal violet); assay type: cell-based, Staphylococcus aureus; details: EO at 2.5, 5 and 10 μL/mL; chlorohexidine 0.2% v/v; 24 h; versus control culture; Figure 5
Description: as §2, §4

[14] = target: T1, acetylcholinesterase; test: biochemical; assay type: biochemical
Description: The inhibitory activity of the essential oils on acetylcholinesterase was evaluated according to the method previously described. The following formula was used to determine the percentage of inhibition action: Inhibition = [(A0 − A1)/A0) × 100]; where A0 is the absorbance of the control and A1 is the absorbance of the sample.

[15] = target: T2, tyrosinase (Homo sapiens, UniProt P14679); test: Tyrosinase inhibition assay (L-DOPA oxidation); assay type: biochemical; set-up: inhibition: dose or concentration left out as unconfirmed; details: 50 mg/mL; Figure 4C
T2 sequence (P14679 19-529): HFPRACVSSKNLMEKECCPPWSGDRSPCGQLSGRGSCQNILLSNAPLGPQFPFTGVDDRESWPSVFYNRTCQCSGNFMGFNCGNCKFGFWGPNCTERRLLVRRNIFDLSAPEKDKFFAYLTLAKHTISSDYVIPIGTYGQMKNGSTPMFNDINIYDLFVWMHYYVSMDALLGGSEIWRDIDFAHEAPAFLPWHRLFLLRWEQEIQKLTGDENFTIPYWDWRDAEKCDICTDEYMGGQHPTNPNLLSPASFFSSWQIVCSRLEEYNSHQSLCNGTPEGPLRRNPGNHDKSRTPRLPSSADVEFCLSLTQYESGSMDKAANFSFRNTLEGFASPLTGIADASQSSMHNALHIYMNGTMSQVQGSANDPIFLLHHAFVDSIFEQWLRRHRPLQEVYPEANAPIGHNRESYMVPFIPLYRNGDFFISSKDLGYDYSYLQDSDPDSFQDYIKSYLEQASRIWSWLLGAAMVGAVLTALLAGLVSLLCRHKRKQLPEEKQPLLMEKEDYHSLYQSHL
Description: as §1

[16] = system: MRSA strains; set-up: method as in PMID 31461850; details: cited from earlier work
[17] = DPPH free radical-scavenging activity; details: mean ± SD, triplicate
Description: The radical scavenging capacity was estimated according to Bounatirou et al. using 2,20-diphenylpicrylhydrazyl (DPPH) free radicals. The radical inhibition percentage was calculated with the equation: Inhibition = [(A0 − A1)/A0 × 100]; A0 stands for the absorbance of the control and A1 stands for the absorbance of the sample. […] Tests were carried out in triplicate.

[18] = system: S. aureus; set-up: method as in PMID 12485339; details: previous study; cited from earlier work
[19] = system: E. coli; set-up: method as in PMID 12485339; details: previous study; cited from earlier work

| Compound | nitric oxide radical scavenging activity [1] | lipoxygenase inhibition / anti-inflammatory activity [2] | Half Maximal Inhibitory Concentration IC50 H2O2 [3] | inhibition [4] [%] | IC50 [5] [µM] | Half Maximal Inhibitory Concentration IC50 Superoxide [7] | Inhibition Zone Methicillin Resistant S. aureus 15 [8] | Inhibition Zone S. aureus ATCC 6538 [9] | Half Maximal Inhibitory Concentration IC50 NO. [1] | Inhibition Zone E. coli DSM 1077 [10] | also measured |
| --- | --- | --- | --- | --- | --- | --- | --- | --- | --- | --- | --- |
| CC1=CC[C@@H](C(C)(C)O)CC1 [α-Terpineol] | had activity | weak anti-inflammatory activity | --- | > 20 | 8430 |  |  |  |  |  | Half Maximal Inhibitory Concentration IC50 α-Glucosidase [6]: had no activity |
| CC12CCC(CC1=O)C2(C)C (stereo not shown) [Camphor] |  | weak anti-inflammatory activity | --- | > 20 |  | --- | 11.67 ± 1.02 ^b,c mm | 10.5 ± 1.22 ^c mm | --- | 13.00 ± 0.40 ^b mm | Inhibition Zone S. aureus ATCC 6538 ([9]; listed as camphor): 10.5 ± 1.22 mm |
| [H]/N=C(\N/C(=N/[H])NCCCCCCNC(=N)NC(=N)Nc1ccc(Cl)cc1)Nc1ccc(Cl)cc1 [chlorohexidine] |  |  |  |  |  |  |  |  |  |  | biofilm formation of E. coli DSM 1077 [11]: reduced biofilm formation; biofilm formation of MRSA 15 [12]: reduced biofilm formation; biofilm formation of S. aureus ATCC 6538 [13]: induced the biofilm formation |
| C=C(C)[C@H]1CC=C(C)CC1 [Limonene] | had activity |  |  |  |  |  |  |  |  |  | Half Maximal Inhibitory Concentration IC50 Acetylcholinesterase ([14]; mean ± SD, triplicate): 0.08 ± 0.00 ^e,f,g,h,i mg/mL; Half Maximal Inhibitory Concentration IC50 Lipoxygenase ([2]; mean ± SD, triplicate): 0.11 ± 0.01 ^f mg/mL; Half Maximal Inhibitory Concentration IC50 α-Glucosidase [6]: 1.18 ± 0.06 ^a mg/mL |
| O=C(N[C@H](CO)[C@H](O)c1ccc([N+](=O)[O-])cc1)C(Cl)Cl [Chloramphenicol] |  |  |  |  |  |  | 6.00 ± 0.00 ^d mm | 10.16 ± 0.70 ^c mm |  |  | zone of inhibition at 30 µg/mL ([8]; Staphylococcus aureus, MRSA): 6 mm; zone of inhibition at 30 µg/mL ([9]; Staphylococcus aureus, ATCC6538): 10.2 ± 0.7 mm; zone of inhibition at 30 µg/mL ([10]; Escherichia coli, DSM1077): 10.8 ± 0.47 mm |
| CC1=CCC2CC1C2(C)C (stereo not drawn) [α-Pinene] | had activity |  | --- |  | 147 |  |  |  |  |  | tyrosinase inhibition percentage, major terpenes [15]: lowest ability |
| CC1(C)C2CCC1(C)C(O)C2 (stereo not shown) [Borneol] | had activity |  | --- | > 20 |  |  |  |  |  |  | IC50 ([14]; mean ± SD, triplicate, read-out: Half Maximal Inhibitory Concentration IC50 Acetylcholinesterase (converted)): 3110 µM |
| C=CC(C)(CCC=C(C)C)OC(C)=O (stereo not shown) [Linalyl acetate] |  |  | --- | > 20 |  | 18.23 ± 0.01 ^b mg/mL |  |  | --- |  | Half Maximal Inhibitory Concentration IC50 NO. ([1]; listed as linalyl acetate): had no ability; MIC against MRSA strains [16]: 450.50 ± 0.00 μL/mL; Half Maximal Inhibitory Concentration IC50 DPPH [17]: 148.61 ± 1.28 ^a mg/mL; Half Maximal Inhibitory Concentration IC50 α-Glucosidase ([6]; listed as linalyl acetate): did not have activity |
| C=CC(C)(O)CCC=C(C)C (stereo not shown) [Linalool] |  | weak anti-inflammatory activity |  | > 20 |  | 20.41 ± 1.47 ^b mg/mL | 13.83 ± 1.24 ^b mm | 12.83 ± 0.47 ^b,c mm | --- | 15.67 ± 0.23 ^a mm | Inhibition Zone Methicillin Resistant S. aureus 15 ([8]; listed as linalool): 13.83 ± 1.24 mm; Inhibition Zone S. aureus ATCC 6538 ([9]; listed as linalool): 12.83 ± 0.47 mm; Half Maximal Inhibitory Concentration IC50 NO. ([1]; listed as linalool): had no ability; inhibition zone against S. aureus [18]: 13.0 ± 4.2 mm; inhibition zone against E. coli [19]: 10.3 ± 0.5 mm; Half Maximal Inhibitory Concentration IC50 DPPH [17]: 102.34 ± 3.13 ^b mg/mL; Inhibition Zone E. coli DSM 1077 ([10]; listed as linalool): 15.67 ± 0.23 mm; Half Maximal Inhibitory Concentration IC50 α-Glucosidase ([6]; listed as linalool): did not have activity |
| CC12CCC(CC1)C(C)(C)O2 [1,8-Cineole] |  | weak anti-inflammatory activity |  | > 20 | 64.8 |  | 12.16 ± 0.47 ^b mm | 10.5 ± 0.70 ^c mm | --- | 12.16 ± 0.62 ^b,c mm | Inhibition Zone S. aureus ATCC 6538 ([9]; listed as 1,8-cineole): 10.5 ± 0.70 mm; IC50 [14]: 1170 µM |
